In this assay the test system is J2N-k myocytes. Put plainly: Stretch-induced CK release from J2N-k myocytes. Conditions: 30 μM, 30 min pretreatment, cyclic stretch 20% elongation 1 h. In kind it is cell-based, hamster. The protocol:
Creatine phosphokinase (CK) activity in the medium was determined using an in vitro colorimetric assay kit (CK Test Kit; Wako Pure Chemical Industries, Ltd., Osaka, Japan) according to the manufacturer's protocol The cTN-I level in the serum was measured, while quantitative immunoblotting and immunocytochemistry were performed as previously described. Protein concentration was measured using the bicinchoninic acid assay (Pierce Chemical Co., Rockford, IL, USA) with bovine serum albumin as the standard. All histochemical and physiological analyses were performed by investigators blinded to the drug treatments. Unless otherwise stated, results are presented as the mean ± SD of at least 5 determinations. The unpaired Student's t-test and one-way ANOVA followed by Dunnett's test were used to analyse the data. Values of P < 0.05 (indicated as asterisks in the figures) were considered statistically significant. All cellular measurements were repeated at least 5 times. Representative data are shown.

Consider `COc1cc(/C=C(\C#N)C(=O)Nc2ccccc2C(=O)O)cc(Cl)c1OC` [A3, 2-[(2E)-3-(3-Chloro-4,5-dimethoxyphenyl)-2-cyanoprop-2-enoylamino]benzoic acid], for which the “reduction of stretch-induced CK release” value is recorded as “up to 70%”.

Values taken from PMC5865651, “Novel inhibitor candidates of TRPV2 prevent damage of dystrophic myocytes and ameliorate against dilated cardiomyopathy in a hamster model” (Oncotarget, 2018).
